Test results reported in article PMC5911928 (European journal of medicinal chemistry, 2017).
Values after ≈ are worked out from the molar mass of the structure shown.

How the values were obtained:
B. subtilis [1] = assay: MIC against B. subtilis; assay type: cell-based; conditions: Bacillus subtilis
[2] = Human microsomal stability analysis; assay type: in vitro ADME; conditions: human liver microsomes
MRSA USA300 = assay: In vivo antibacterial activity in MRSA-infected C. elegans; design: species or system Caenorhabditis elegans; conditions: for reduction of the burden of MRSA USA300: C. elegans AU37, 20 μg/mL, 18 hours treatment
[3] = system: UDP-N-acetylmuramyl pentapeptide in S. aureus NRS107 (RN4220); assay: Detection of final soluble cell wall precursor by HPLC/MS; assay type: cell-based, Staphylococcus aureus; conditions: 10 × MIC, 30 minutes
[4] = system: MRSA USA400 inside infected murine macrophage (J774) cells; assay: Eradication of intracellular MRSA in infected macrophages; conditions: 16 μg/mL, J774 cells infected with MRSA USA400
[5] = system: S. aureus NRS107 (RN4220); assay: microbe, parasite or virus in culture; assay type: cell-based; conditions: Staphylococcus aureus
VRSA4 = assay: MIC/MBC broth microdilution; assay type: cell-based; conditions: Staphylococcus aureus
VRSA10 = assay: MIC/MBC broth microdilution; assay type: cell-based; conditions: Staphylococcus aureus
HaCaT cells = assay: MTS cytotoxicity analysis against human keratinocytes; assay type: cell-based; conditions: MTS assay, tested at 8, 16, 32, 64 μg/mL
J774 cells = assay: MTS cytotoxicity analysis against murine macrophages; assay type: cell-based; conditions: MTS assay, tested at 8, 16, 32, 64 μg/mL
B. subtilis [6] = assay: Bacterial Cytological Profiling; assay type: cell-based, Bacillus subtilis; conditions: for cell shape (BCP) in media containing MSM: LB-MSM, two hours, 4i 4 × MIC, oxacillin 5×MIC, D-cycloserine 1×MIC
[7] = system: drug-resistant S. aureus clinical isolates; assay: Anti-MRSA activity over the panel of S. aureus clinical isolates; assay type: cell-based, Staphylococcus aureus; conditions: against both MRSA and VRSA
MRSA USA400 = assay: Time-kill assay; conditions: 4 × MIC, MRSA USA400, 37 °C, 24-hour incubation
[8] = pH 7.4, NADPH-Free CLint, without NADPH

Work on Cc1onc(-c2ccccc2Cl)c1C(=O)N[C@@H]1C(=O)N2[C@@H]1SC(C)(C)[C@@H]2C(=O)O [cloxacillin] yielded an MIC (B. subtilis [1]) of 0.47 µg/mL (≈ 1.08 µM).

In the case of CCCCc1ccc(-c2nc(C)c(/C(C)=N/NC(=N)N)s2)cc1 [Compound 1a, reference compound], the microsomal CLint [2, 8] is reported as less than 9.6 µL/min/mg.

In the case of CN[C@H](CC(C)C)C(=O)N[C@H]1C(=O)N[C@@H](CC(N)=O)C(=O)N[C@H]2C(=O)N[C@H]3C(=O)N[C@H](C(=O)N[C@H](C(=O)O)c4cc(O)cc(O)c4-c4cc3ccc4O)[C@H](O)c3ccc(c(Cl)c3)Oc3cc2cc(c3O[C@@H]2O[C@H](CO)[C@@H](O)[C@H](O)[C@H]2O[C@H]2C[C@](C)(N)[C@H](O)[C@H](C)O2)Oc2ccc(cc2Cl)[C@H]1O [Vancomycin, reference compound], the “reduction of the burden of MRSA USA300” value (MRSA USA300) is reported as “low reduction”, the “peak of UDP-N-acetylmuramyl pentapeptide (accumulation)” value [3] is reported as “noticeable increase” and the “reduction of MRSA CFU in infected macrophages” value ([4]; 24 hours of treatment) is reported as “not able to reduce”.

CC(=O)NC[C@H]1CN(c2ccc(N3CCOCC3)c(F)c2)C(=O)O1 [Linezolid] showed an MIC [5] of 2 µg/mL (≈ 5.93 µM), an MIC (VRSA4) of 2 µg/mL (≈ 5.93 µM) and an MIC (VRSA10) of 2 µg/mL (≈ 5.93 µM).

In the case of Cc1nc(-c2ccc3ccccc3c2)sc1-c1cnc(NC(=N)N)s1 [Compound 4i, 1-(4′-Methyl-2′-(naphthalen-2-yl)-[5,5′-bithiazol]-2-yl)guanidine], the “concentration up to which not toxic” value (HaCaT cells) is reported as 32000 ng/mL, the “concentration up to which non-toxic” value (J774 cells) is reported as 16000 ng/mL and the “reduction of the burden of MRSA USA300” value (MRSA USA300) is reported as “approximately 30%”. The “reduction of MRSA burden relative to lead compound 1c and vancomycin” value (MRSA USA300; C. elegans, 20 μg/mL, 18 hours, same experimental conditions) was “three”, the “peak of UDP-N-acetylmuramyl pentapeptide (accumulation)” value [3] was “noticeable increase” and the “effect on cells (BCP)” value (B. subtilis [6]; 5 × MIC, two hours of exposure) was “lysed”. The “cell shape (BCP) in media containing MSM” value (B. subtilis [6]) was “misshapen and formed small bulges”, the microsomal CLint ([2]; pH 7.4, NADPH-Dependent CLint, with NADPH) was 17.3 µL/min/mg and the microsomal CLint [2, 8] was less than 9.6 µL/min/mg. For the same molecule, the “MBC values relative to MIC values” [7] was “matched or were two-fold higher”, the “time to completely eliminate MRSA cells” value (MRSA USA400) was “four” and the “reduction of MRSA CFU/mL in infected macrophages” value ([4]; four hours of treatment) was “unable to reduce”.

With N[C@@H]1CONC1=O [ᴅ-cycloserine] the MIC (B. subtilis [1]) was 37.5 µg/mL (≈ 367 µM).

With Cc1onc(-c2ccccc2)c1C(=O)N[C@@H]1C(=O)N2[C@@H]1SC(C)(C)[C@@H]2C(=O)O [oxacillin, reference compound] the “cell shape (BCP) in media containing MSM” value (B. subtilis [6]) was “large bulges and misshapen cells”.
